Reference: patent US20250144067A1, “PERSONALIZED STARVATION THERAPY FOR CANCER” (Faeth Therapeutics, Inc., priority 2021, published 2025)
Structures can show the parent of a compound that is named as a salt.

Assays:
[1] = tested on: NCI-H292 lung cancer cells; assay: FDA drug screening, complete media vs cholesterol-free media with simvastatin (TABLE 2); type: cell-based, human; settings: for Cholesterol-free media + simvastatin (0.04 μM) / Complete Media: NCI-H292 cells
[2] = tested on: NCI-H292 lung cancer cells; assay: FDA drug screening, complete media vs cholesterol-free media without statin (TABLE 1); type: cell-based, human
[3] = FDA drug library screen, cholesterol-free media with simvastatin 0.04 μM
[4] = FDA drug library screen, complete media
[5] = complete media minus cholesterol-free media + simvastatin, >0 enhanced anti-cancer activity, about 0 neutral, <0 antagonist
[6] = Complete minus Cholesterol-free, greater than 0 enhanced anti-cancer activity, about 0 neutral, below 0 antagonists
[7] = NCI-H292 cells in cholesterol-free media without statin
[8] = NCI-H292 cells in complete media
[9] = Complete minus Cholesterol-free, >0 enhanced anti-cancer activity, about 0 neutral, <0 antagonist
[10] = NCI-H292 cells, cholesterol-free media without statin, FDA drug library screen
[11] = NCI-H292 cells, complete media, FDA drug library screen
[12] = complete media vs cholesterol-free media + simvastatin (0.04 μM), […]
[13] = NCI-H292 cells, cholesterol-free media without statin
[14] = cholesterol-free media with simvastatin 0.04 μM, FDA drug library screen (TABLE 2)
[15] = complete media, FDA drug library screen (TABLE 2)
[16] = complete media minus cholesterol-free media + simvastatin (0.04 μM), >0 enhanced anti-cancer activity, about 0 neutral, <0 antagonist
[17] = complete vs cholesterol-free media, >0 enhanced anti-cancer activity, about 0 neutral, <0 antagonist
[18] = complete media vs cholesterol-free media + simvastatin (0.04 μM), >0 enhanced anti-cancer activity, about 0 neutral, <0 antagonist
[19] = FDA library drug in cholesterol-free media with simvastatin 0.04 μM
[20] = FDA library drug in complete media

FC(F)(F)C(F)(F)C(F)(F)C(F)(F)C(F)(F)C(F)(F)C(F)(F)C(F)(F)Br [Perflubron]
Cholesterol-free media + simvastatin (0.04 μM) [1, 3]: 0.901
Complete Media [1, 4]: 1.248
Difference [1, 5]: 0.35
Difference [2, 6]: −0.50
Cholesterol-free [2, 7]: 1.905
Complete [2, 8]: 1.408

N=C1CCCN1Cc1nc(O)nc(O)c1Cl [Tipiracil (hydrochloride)]
Cholesterol-free media + simvastatin (0.04 μM) [1, 3]: 0.8843
Complete Media [1, 4]: 1.03
Difference [1, 5]: 0.15
Difference [2, 9]: 0.03
Cholesterol-free [2, 10]: 0.8754
Complete [2, 11]: 0.9052

Kanamycin (sulfate)
Cholesterol-free media + simvastatin (0.04 μM) [1, 3]: 1.825
Complete Media [1, 4]: 1.703
Difference [1, 12]: −0.12
Cholesterol-free [2, 13]: 1.851
Complete ([2]; NCI-H292 cells, complete media): 1.486
Difference ([2]; complete vs cholesterol-free media, […]): −0.36

CC(=O)OCC(=O)[C@@]1(O)CC[C@H]2[C@@H]3CCC4=CC(=O)C=C[C@]4(C)[C@@]3(Cl)[C@@H](Cl)C[C@@]21C [Dichlorisone acetate]
Cholesterol-free media + simvastatin (0.04 μM) [1, 14]: 0.7442
Complete Media [1, 15]: 0.6906
Difference [1, 16]: −0.05
Cholesterol-free [2, 10]: 0.8532
Complete [2, 11]: 1.096
Difference [2, 17]: 0.24

c1ccc2c(CC3=NCCN3)cccc2c1 [Naphazoline (hydrochloride)]
Cholesterol-free media + simvastatin (0.04 μM) [1, 14]: 0.7495
Complete Media [1, 15]: 0.6802
Difference [1, 16]: −0.07
Difference [2, 9]: −0.26
Cholesterol-free [2, 13]: 1.189
Complete ([2]; NCI-H292 cells, complete media): 0.9279

Carbetapentane (citrate)
Cholesterol-free media + simvastatin (0.04 μM) [1, 3]: 0.8092
Complete Media [1, 4]: 1.195
Difference [1, 5]: 0.39
Difference [2, 9]: −0.21
Cholesterol-free [2, 13]: 1.181
Complete ([2]; NCI-H292 cells, complete media): 0.9736

CC(=O)O[C@]1(C(C)=O)CC[C@H]2[C@@H]3C[C@H](C)C4=CC(=O)C=C[C@]4(C)[C@@]3(F)[C@@H](O)C[C@@]21C [Fluorometholone acetate]
Cholesterol-free media + simvastatin (0.04 μM) [1, 3]: 0.6176
Complete Media [1, 4]: 0.9441
Difference [1, 5]: 0.33
Cholesterol-free [2, 13]: 0.9866
Complete ([2]; NCI-H292 cells, complete media): 0.5758
Difference ([2]; complete vs cholesterol-free media, greater than 0 enhanced anti-cancer activity, about 0 neutral, below 0 antagonists): −0.41

CN1C2CCCC1CC(NC(=O)c1nn(C)c3ccccc13)C2 (stereo not drawn) [Granisetron (Hydrochloride)]
Cholesterol-free media + simvastatin (0.04 μM) [1, 14]: 0.8994
Complete Media [1, 15]: 0.8536
Difference [1, 16]: −0.05
Difference [2, 9]: −0.26
Cholesterol-free [2, 13]: 1.123
Complete ([2]; NCI-H292 cells, complete media): 0.8639

CC(=O)OC[C@H]1O[C@@H](n2ccc(=O)[nH]c2=O)[C@H](OC(C)=O)[C@@H]1OC(C)=O [Uridine triacetate]
Cholesterol-free media + simvastatin (0.04 μM) ([1]; drug in cholesterol-free media with simvastatin 0.04 μM): 1.076
Complete Media ([1]; drug in complete media): 0.8641
Difference [1, 18]: −0.21
Cholesterol-free [2, 10]: 1.055
Complete [2, 11]: 1.37
Difference [2, 17]: 0.32

O=C(c1ccc(F)cc1)C1CCN(CCn2c(=O)[nH]c3ccccc3c2=O)CC1 [Ketanserin]
Cholesterol-free media + simvastatin (0.04 μM) ([1]; cholesterol-free media with simvastatin 0.04 μM, cell growth value in FDA drug screen): 1.439
Complete Media ([1]; complete media, cell growth value in FDA drug screen): 1.462
Difference [1, 5]: 0.02
Difference [2, 6]: −0.47
Cholesterol-free [2, 7]: 1.183
Complete [2, 8]: 0.7093

CCCCCCCCCCCCCCCC[N+](C)(C)CCN(Cc1ccc(OC)cc1)c1ncccn1.[Br-] [Thonzonium (bromide)]
Cholesterol-free media + simvastatin (0.04 μM) [1, 3]: 0.2494
Complete Media [1, 4]: 0.5638
Difference [1, 5]: 0.31
Difference ([2]; Complete minus Cholesterol-free, greater than 0 enhanced anti-cancer activity, about 0 neutral, below 0 antagonist): −0.13
Cholesterol-free ([2]; NCI-H292 cells, FDA drug library screen, cholesterol-free media without statin): 0.179
Complete ([2]; NCI-H292 cells, FDA drug library screen, complete media): 0.05155

CO/N=C(\C(=O)N[C@@H]1C(=O)N2C(C(=O)O)=C(CSc3nnnn3C)CS[C@H]12)c1csc(N)n1 [Cefmenoxime (hydrochloride)]
Cholesterol-free media + simvastatin (0.04 μM) [1, 3]: 0.8027
Complete Media [1, 4]: 0.7093
Difference [1, 18]: −0.09
Difference [2, 9]: −0.30
Cholesterol-free [2, 13]: 1.225
Complete ([2]; NCI-H292 cells, complete media): 0.93

Hyaluronidase
Cholesterol-free media + simvastatin (0.04 μM) [1, 19]: 1.288
Complete Media [1, 20]: 1.022
Difference [1, 12]: −0.27
Difference ([2]; Complete minus Cholesterol-free, […]): −0.05
Cholesterol-free [2, 10]: 0.9036
Complete [2, 11]: 0.8508

COc1ccc2cccc(CCNC(C)=O)c2c1 [Agomelatine]
Cholesterol-free media + simvastatin (0.04 μM) [1, 19]: 1.184
Complete Media [1, 20]: 0.8914
Difference [1, 18]: −0.29
Cholesterol-free [2, 10]: 0.6611
Complete [2, 11]: 0.8138
Difference [2, 17]: 0.15
